Here are results for 35 molecules from patent US20240327392A1, “HETEROCYCLOALKYL-SUBSTITUTED POLYHETEROAZOLE DERIVATIVES AS MEDICAMENTS FOR TREATING AND/OR PREVENTING RS VIRUS INFECTIONS” (ALBIUS SCIENCES ALPHA PRIVATE LIMITED, priority 2021, published 2024).

The first test concerns human RS virus A2 strain. Kind of test: In vitro test for anti-RS virus proliferation inhibitory activity (quantitative RT-PCR of RS virus RNA copy number in infected Vero cells). Conditions: 72 h; Vero cells infected with human RS virus A2 strain, 3 days of incubation, RS virus N gene RNA copy number by quantitative RT-PCR; read-out: Anti-RS virus Activity. The class given is cell-based. The essentials: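 Vero cells infected with RSV A2 (1.7×10^4 TCID50/mL in inoculum mix) with compound in 10% FCS EMEM, 3 days at 37 °C, 5% CO2. Lysate viral N-gene RNA quantified by one-step SYBR qRT-PCR; copy number by comparative Ct relative to untreated infected cells.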
`CC(C)(C)OC(=O)N1CCC[C@H]1c1nc(CCCc2ccccc2)no1` [Compound 1-1, 3-(3-phenylpropyl)-5-[(2S)-1-tert-butoxycarbonylpyrrolidin-2-yl]-1,2,4-oxadiazole]: the IC50 is over 50 µM.
Turning to `O=S(=O)(C1CCCCC1)N1CCC[C@H]1c1nc(CCCc2ccccc2)no1` [Compound 1B, 3-(3-phenylpropyl)-5-[(2S)-1-cyclohexylsulfonylpyrrolidin-2-yl]-1,2,4-oxadiazole], the IC50 is 10 to 50 µM.
In the case of `O=S(=O)(C1CCCCC1)N1C[C@H](O)C[C@H]1c1nc(CCCc2ccccc2)no1` [Compound 3B, 3-(3-phenylpropyl)-5-[(2S,4R)-1-cyclohexylsulfonyl-4-hydroxypyrrolidin-2-yl]-1,2,4-oxadiazole], the IC50 was in the range of 10 to 50 µM.
For the molecule `CC(C)(C)OC(=O)N1CCCC[C@H]1c1nc(CCCc2ccccc2)no1` [Compound 2-1, 3-(3-phenylpropyl)-5-[(2S)-1-tert-butoxycarbonylpiperidin-2-yl]-1,2,4-oxadiazole], the IC50 is 10 to 50 µM.
Turning to `O=S(=O)(c1ccccc1)N1CCCC[C@H]1c1nc(CCCc2ccccc2)no1` [Compound 2D, 3-(3-phenylpropyl)-5-[(2S)-1-benzenesulfonylpiperidin-2-yl]-1,2,4-oxadiazole], the IC50 is under 10 µM.
As for `CS(=O)(=O)N1CCC[C@H]1c1nc(CCCc2ccccc2)no1` [Compound 1C, 3-(3-phenylpropyl)-5-[(2S)-1-methanesulfonylpyrrolidin-2-yl]-1,2,4-oxadiazole], the IC50 was over 50 µM.
As for `CC(C)CS(=O)(=O)N1C[C@H](O)C[C@H]1c1nc(CCCc2ccccc2)no1` [Compound 3A, 3-(3-phenylpropyl)-5-[(2S,4R)-4-hydroxy-1-isobutylsulfonylpyrrolidin-2-yl]-1,2,4-oxadiazole], the IC50 was over 50 µM.

Still in this test, the particulars now being: 72 h; Vero cells infected with human RS virus A2 strain, 3 days of incubation, RS virus RNA copy number by quantitative RT-PCR; read-out: Anti-RS virus Activity.
In the case of `O=S(=O)(C1CCOCC1)N1CC(CC2CCC2)CC1c1nc(CCCc2ccccc2)no1` (centres unmarked) [Compound 6AP, 5-(4-(cyclobuthylmethyl)-1-((tetrahydro-2H-pyran-4-yl)sulfonyl)pyrrolidin-2-yl)-3-(3-phenylpropyl)-1,2,4-oxadiazole], the IC50 is under 10 µM.
Turning to `O=S(=O)(C1CCCCC1)N1CC(CC2CCC2)CC1c1nc(CCCc2ccccc2)no1` (centres unmarked) [Compound 6B, 3-(3-phenylpropyl)-5-(1-cyclohexylsulfonyl-4-cyclobutylmethylpyrrolidin-2-yl)-1,2,4-oxadiazole], the IC50 is under 10 µM.
Same read-out and setting: the same measure for `CN(C)c1cccc2c(S(=O)(=O)N3CC4(CC4)C[C@H]3c3nc(CCCc4ccccc4)no3)cccc12` [Compound 5AL, (S)-N,N-dimethyll-5-((6-(3-(3-phenylpropyl)-1,2,4-oxadiazole-5-yl)-5-azaspiro[2.4]heptan-5-yl)sulfonyl)naphthalen-1-amine]: under 10 µM; for `CC(C)(C)OC(=O)N1CC(CS(=O)(=O)N2CC(CC3CCC3)CC2c2nc(CCCc3ccccc3)no2)C1` (centres unmarked) [Compound 6AM, tert-buthyl 3-(((4-(cyclobuthylmethyl)-2-(3-(3-phenylpropyl)-1,2,4-oxadiazole-5-yl)pyrrolidin-1-yl)sulfonyl)methyl)azetidin-1-carboxylate]: under 10 µM; for `CC(C)(C)OC(=O)N1CCC(S(=O)(=O)N2CC(CC3CCC3)CC2c2nc(CCCc3ccccc3)no2)CC1` (centres unmarked) [Compound 6AO]: over 50 µM.
The same measure, in the same setting: the same measure for `CC(C)(C)OC(=O)N1CCC(CS(=O)(=O)N2CC3(CC3)C[C@H]2c2nc(CCCc3ccccc3)no2)CC1` [Compound 5AN, tert-buthyl (S)-4-(((6-(3-(3-phenylpropyl)-1,2,4-oxadiazole-5-yl)-5-azaspiro[2.4]heptan-5-yl)sulfonyl)methyl)piperidin-1-carboxylate]: under 10 µM; for `CC(C)CCN1CCC[C@H]1c1nc(CCCc2ccccc2)no1` [Compound 1T, (S)-5-(1-isopentylpyrrolidin-2-yl)-3-(3-phenylpropyl)-1,2,4-oxadiazole]: under 10 µM.
Take `O=C(Cc1ccccc1)N1CCCC[C@H]1c1nc(CCCc2ccccc2)no1` [Compound 2P, (S)-2-Phenyl-1-(2-(3-(3-phenylpropyl)-1,2,4-oxadiazol-5-yl)piperidin-1-yl)ethan-1-one]: the IC50 was under 10 µM.
Turning to `CC(C)CS(=O)(=O)N1CCCC[C@H]1c1nc(CCc2ccncc2)no1` [Compound 12A, (S)-5-(1-(Isobutylsulfonyl)piperidin-2-yl)-3-(2-(pyridin-4-yl)ethyl)-1,2,4-oxadiazole], the IC50 was under 10 µM.
As to `O=S(=O)(c1ccccc1)N1CC(c2ccccc2)C[C@H]1c1nc(CCCc2ccccc2)no1` (stereo in doubt) [Compound 7D, 3-(3-phenylpropyl)-5-[(2S,4S)-1-benzenesulfonyl-4-phenylpyrrolidin-2-yl]-1,2,4-oxadiazole], the IC50 was under 10 µM.
As to `CC(C)(C)OC(=O)N1CCCC[C@H]1c1nc(CC(=O)Nc2ccccc2)no1` [Compound 23-1, Tert-butyl (S)-2-(3-(2-oxo-2-(phenylamino)ethyl)-1,2,4-oxadiazol-5-yl)piperidine-1-carboxylate], the IC50 fell in the range of 10 to 50 µM.
Turning to `c1ccc(CCCc2noc([C@@H]3CCCCN3Cc3ccccc3)n2)cc1` [Compound 2AA, (S)-5-(1-benzylpiperidin-2-yl)-3-(3-phenylpropyl)-1,2,4-oxadiazole], the IC50 lay in the range of 10 to 50 µM.
`O=S(=O)(c1ccc(F)cc1)N1CC2(CC2)C[C@H]1c1nc(CCCc2ccccc2)no1` [Compound 5AJ, (S)-5-(5-((4-fluorophenyl)sulfonyl)-5-azaspiro[2.4]heptan-6-yl)-3-(3-phenylpropyl)-1,2,4-oxadiazole]: the IC50 was under 10 µM.
Take `CC(C)(C)[S+]([O-])N1CCCC[C@H]1c1nc(CCCc2ccccc2)no1` (single isomer, unassigned) [2W′]: the IC50 fell in the range of 10 to 50 µM.
Turning to `O=C(NCc1noc([C@@H]2CCCN2S(=O)(=O)C2CCCCC2)n1)c1cccc2ccccc12` [Compound 11B, 3-[(1-naphthoylamino)methyl]-5-[(2S)-1-cyclohexylsulfonylpyrrolidin-2-yl]-1,2,4-oxadiazole], the IC50 fell in the range of 10 to 50 µM.
Still for that read-out and setting: as for `O=S(=O)(N1CCCCC1)N1C[C@H](c2ccccc2)C[C@H]1c1nc(CCCc2ccccc2)no1` [Compound 7AD], the figure is 10 to 50 µM.
Regarding `O=C(NCc1noc([C@@H]2CCCCN2S(=O)(=O)C2CCCCC2)n1)c1cccc2ccccc12` [Compound 26B, (S)—N-((5-(1-(cyclohexylsulfonyl)piperidin-2-yl)-1,2,4-oxadiazol-3-yl)methyl)-1-naphthamide], the IC50 is 10 to 50 µM.
With `O=S(=O)(c1ccccc1)N1C[C@H](F)C[C@H]1c1nc(CCCc2ccccc2)no1` [Compound 8D, 3-(3-phenylpropyl)-5-[(2S,4R)-1-benzenesulfonyl-4-fluoropyrrolidin-2-yl]-1,2,4-oxadiazole], the IC50 was in the range of 10 to 50 µM.
Regarding `COc1ccc(C(=O)NCc2noc([C@@H]3CCCCN3S(=O)(=O)C3CCCCC3)n2)cc1OC` [Compound 27B, (S)—N-((5-(1-(cyclohexylsulfonyl)piperidin-2-yl)-1,2,4-oxadiazol-3-yl)methyl)-3,4-dimethoxybenzamide], the IC50 lay within 10 to 50 µM.
The same measure, in the same setting: as for `CS(=O)(=O)N1C[C@H](F)C[C@H]1c1nc(CCCc2ccccc2)no1` [Compound 8C, 3-(3-phenylpropyl)-5-[(2S,4R)-1-methanesulfonyl-4-fluoropyrrolidin-2-yl]-1,2,4-oxadiazole], the figure is over 50 µM; as for `CC(C)(C)OC(=O)NCc1noc([C@@H]2C[C@@H](c3ccccc3)CN2S(=O)(=O)c2ccc(F)cc2)n1` [Compound 43AJ, Tert-butyl ((5-((2S,4S)-1-((4-fluorophenyl)sulfonyl)-4-phenylpyrrolidin-2-yl)-1,2,4-oxadiazol-3-yl)methyl) carbamate], 10 to 50 µM.
On the same count and under the same terms, as for `O=C(NCc1noc([C@@H]2CCCCN2S(=O)(=O)C2CCCCC2)n1)c1ccc2c(c1)OCO2` [Compound 21B, (S)—N-((5-(1-(cyclohexylsulfonyl)piperidin-2-yl)-1,2,4-oxadiazol-3-yl)methyl)benzo[d][1,3]dioxol-5-carboxamide], the figure is over 50 µM; as for `CC(C)(C)OC(=O)N1C[C@H](F)C[C@H]1c1nc(CCCc2ccccc2)no1` [Compound 8-1, 3-(3-phenylpropyl)-5-[(2S,4R)-1-tert-butoxycarbonyl-4-fluoropyrrolidin-2-yl]-1,2,4-oxadiazole], under 10 µM; as for `CC(C)CS(=O)(=O)N1CCC[C@H]1c1nc(CCc2ccccc2)no1` [Compound 9A, 3-(2-phenylethyl)-5-[(2S)-1-isobutylsulfonylpyrrolidin-2-yl]-1,2,4-oxadiazole], over 50 µM.
Consider `Cc1sc([C@@H]2CCCCN2S(=O)(=O)C2CCCCC2)nc1C(=O)NCc1ccccc1` [Compound 37B, (S)—N-Benzyl-2-(1-(cyclohexylsulfonyl)piperidin-2-yl)-5-methylthiazole-4-carboxamide], for which the IC50 is under 10 µM.
On the same count and under the same terms, as for `O=S(=O)(c1ccc(F)cc1)N1C[C@H](F)C[C@H]1c1nc(CCCc2ccccc2)no1` [Compound 8AJ, 5-((2S,4R)-4-fluoro-1-((4-fluorophenyl)sulfonyl)pyrrolidin-2-yl)-3-(3-phenylpropyl)-1,2,4-oxadiazole], the figure is under 10 µM.
On the same count and under the same terms, as for `CS(=O)(=O)N1CC2(CC2)C[C@H]1c1nc(CCCc2ccccc2)no1` [Compound 5C, 3-(3-phenylpropyl)-5-{(6S)-5-methanesulfonyl-5-azaspiro[2.4]hept-6-yl}-1,2,4-oxadiazole], the figure is over 50 µM.
With `CC(C)CS(=O)(=O)N1CCCC[C@H]1c1nc(CCc2ccccc2)no1` [Compound 10A, 3-(2-phenylethyl)-5-[(2S)-1-isobutylsulfonylpiperidin-2-yl]-1,2,4-oxadiazole], the IC50 was over 50 µM.
